From the Deep4Chem optical property database
“And” between values parts separate entries of the source, which are not always exact repeats. Identical values can stand only once. Each block holds one molecule with its values, some of them ahead of it.

Experiment: photoluminescence quantum yield (fraction); solvent given as SMILES

photoluminescence quantum yield (in C1CCCCC1): 0.34
photoluminescence quantum yield (in C1CCOC1): 0.17
photoluminescence quantum yield (in C1COCCO1): 0.26
photoluminescence quantum yield (in CC#N): 0.1 and 0.19
photoluminescence quantum yield (in CCCCCC): 0.22 and 0.3
photoluminescence quantum yield (in CO): 0.12 and 0.1
photoluminescence quantum yield (in ClC(Cl)Cl): 0.23 and 0.3
photoluminescence quantum yield (in ClCCl): 0.15
Structure (SMILES): F[B-]1(F)n2c(nc(-c3ccccc3)c2-c2ccccc2)-c2cccc[n+]21

photoluminescence quantum yield (in C1CCCCC1): 0.082
photoluminescence quantum yield (in C1CCOC1): 0.13
photoluminescence quantum yield (in CN(C)C=O): 0.44
photoluminescence quantum yield (in CO): 0.37
photoluminescence quantum yield (in ClC(Cl)Cl): 0.26
photoluminescence quantum yield (in c1ccccc1): 0.2
Structure (SMILES): CC1(C)Cc2c(c3ccccc3c3nc4ccccc4nc23)O1

photoluminescence quantum yield (in C1CCCCC1): 0.85
Structure (SMILES): C[Si](C)(C)C#Cc1ccc(C#C[Si](C)(C)C)c2ccccc12

photoluminescence quantum yield (in ClCCl): 0.28
Structure (SMILES): N#Cc1ccc(C#Cc2ncc(-c3ccccc3)o2)cc1

photoluminescence quantum yield (in C1CCOC1): 0.36
Structure (SMILES): CCC1(CC)c2ccccc2-c2c1c1c(c3c2C(CC)(CC)c2cc(N(c4ccccc4)c4ccccc4)ccc2-3)C(CC)(CC)c2cc(N(c3ccccc3)c3ccccc3)ccc2-1

photoluminescence quantum yield (in C1CCOC1): 0.29
Structure (SMILES): CCN(CC)c1ccc(C(=C(c2ccc(B(c3c(C)cc(C)cc3C)c3c(C)cc(C)cc3C)cc2)c2ccc(B(c3c(C)cc(C)cc3C)c3c(C)cc(C)cc3C)cc2)c2ccc(N(CC)CC)cc2)cc1

photoluminescence quantum yield (in CS(C)=O): 0.07
Structure (SMILES): CN1/C(=C/C=C/C2=[N+](C)c3ccccc3C2(C)C)Sc2ccccc21

photoluminescence quantum yield (in CS(C)=O): 0.89
Structure (SMILES): Cc1ccc(-c2nc3sc4ccccc4c3s2)cc1

photoluminescence quantum yield (in CS(C)=O): 0.302
Structure (SMILES): CCN1\C(=C/C=C/C=C/C2=[N+](CC)c3ccc4ccccc4c3C2(C)C)C(C)(C)c2c1ccc1ccccc21

photoluminescence quantum yield (in ClCCl): 0.37
Structure (SMILES): Cc1ccc2nc3cc4c5c(cccc5c3nc2c1)C(c1ccccc1)=C(c1ccccc1)O4

photoluminescence quantum yield (in CCO): 0.35
photoluminescence quantum yield (in ClC(Cl)Cl): 0.35
photoluminescence quantum yield (in ClCCl): 0.6
Structure (SMILES): CCN(CC)c1ccc2c(-c3ccccc3C(=O)O)c3c([o+]c2c1)/C(=C/Nc1ccccc1)CCC3

photoluminescence quantum yield (in CC#N): 0.05
photoluminescence quantum yield (in CCCCCC): 0.04
Structure (SMILES): C/C=C/c1cc(OC)cc(OC)c1

photoluminescence quantum yield (in CS(C)=O): 0.42
Structure (SMILES): Cc1cccn2c1cc1c3ccccc3nc(-c3ccco3)c12

photoluminescence quantum yield (in ClCCl): 0.48
Structure (SMILES): Fc1ccc(-c2c3ccccc3nc3cc4ccccc4cc23)cc1

photoluminescence quantum yield (in CC#N): 0.12
Structure (SMILES): COc1cccc(-c2nc3c([nH]2)C2=CC(=O)S[C@]2(C)[C@@]2(C)SC(=O)C=C32)c1OC

photoluminescence quantum yield (in C1CCOC1): 0.06
Structure (SMILES): CCCCCCc1cc2c(s1)-c1sc(CCCCCC)cc1P(c1ccccc1)(c1ccccc1)=[O+][B-]2(c1c(C)cc(C)cc1C)c1c(C)cc(C)cc1C

photoluminescence quantum yield (in CCO): 0.47
Structure (SMILES): CCOC(=O)c1cc(C(=O)OCC)c2cc(NC)ccc2n1

photoluminescence quantum yield (in C1CCOC1): 0.23
Structure (SMILES): Cc1cc(C)c([B-]2(c3c(C)cc(C)cc3C)[O+]=P(c3ccccc3)(c3ccccc3)c3ccsc3-c3sccc32)c(C)c1

Further lines, the molecule ahead of its results:

Structure (SMILES): C1=Cc2ccccc2C(=Cc2ccc(-c3ccc(C=C4c5ccccc5-c5ccccc54)cc3)cc2)c2ccccc21
photoluminescence quantum yield (in C1CCOC1): 0.00016

Structure (SMILES): COCCOCCOCCOCC(COCCOCCOCCOC)Oc1cc(/C=C/c2ccc(/C=C(\C#N)c3ccccn3)cc2)c(OC(COCCOCCOCCOC)COCCOCCOCCOC)cc1/C=C/c1ccc(/C=C(\C#N)c2ccccn2)cc1
photoluminescence quantum yield (in ClCCl): 0.64

Structure (SMILES): N#CC=C(c1ccc(N2c3ccccc3Oc3ccccc32)cc1)c1ccc(N2c3ccccc3Oc3ccccc32)cc1
photoluminescence quantum yield (in Cc1ccccc1): 0.371

Structure (SMILES): COc1cc(OC)cc(-c2ccc(-c3ccc(C#N)s3)s2)c1
photoluminescence quantum yield (in C1CCCCC1): 0.09
photoluminescence quantum yield (in C1COCCO1): 0.09
photoluminescence quantum yield (in CC#N): 0.11
photoluminescence quantum yield (in CC(C)O): 0.1
photoluminescence quantum yield (in CCCCO): 0.1
photoluminescence quantum yield (in CCO): 0.1
photoluminescence quantum yield (in CCOC(C)=O): 0.09
photoluminescence quantum yield (in CN(C)C=O): 0.12
photoluminescence quantum yield (in CO): 0.1
photoluminescence quantum yield (in CS(C)=O): 0.16
photoluminescence quantum yield (in Cc1ccccc1): 0.09
photoluminescence quantum yield (in ClC(Cl)Cl): 0.1
photoluminescence quantum yield (in ClCCl): 0.09
photoluminescence quantum yield (in O): 0.02

Structure (SMILES): CCCCCCc1cc(-c2ccc3c(c2)C2CCCC2N3c2ccc3c(c2)C(C)(C)c2ccccc2-3)sc1/C=C1\C(=O)c2ccc(C(=O)O)cc2C1=O (stereo not drawn)
photoluminescence quantum yield (in ClC(Cl)Cl): 0.24

Structure (SMILES): COc1cc2c3c(c4cc(OC)c(OC)c(OC)c4c2c(OC)c1OC)=[N+]1C(=C(c2c(C)cc(C)cc2C)c2cc4c5cc(OC)c(OC)c(OC)c5c5c(OC)c(OC)c(OC)cc5c4n2[B-]1(F)F)C=3
photoluminescence quantum yield (in C1CCCCC1): 0.1
photoluminescence quantum yield (in C1CCOC1): 0.001
photoluminescence quantum yield (in CC#N): 0.001
photoluminescence quantum yield (in Cc1ccccc1): 0.001
photoluminescence quantum yield (in ClCCl): 0.001

Structure (SMILES): COc1ccccc1-c1nc2c3cccnc3c3ncccc3c2n1-c1ccccc1
photoluminescence quantum yield (in Cc1ccccc1): 0.064

Structure (SMILES): COc1cc2c(cc1-c1ccc(C#N)cc1)Cc1c3c(c4c(c1-2)-c1cc(OC)c(-c2ccc(C#N)cc2)cc1C4)C(=O)N(CCC(C)C)C3=O
photoluminescence quantum yield (in C1CCOC1): 0.51

Structure (SMILES): CCCCCCN(CCCCCC)c1ccc(C#Cc2ccc(C#Cc3ccc(-c4ccc(C#Cc5ccc(C#Cc6ccc(N(CCCCCC)CCCCCC)cc6)cc5)cc4)cc3)cc2)cc1
photoluminescence quantum yield (in Cc1ccccc1): 0.82

Structure (SMILES): CC1=N/C(=C\c2cccc(N(C)C)c2)C(=O)N1CCO
photoluminescence quantum yield (in C1CCOC1): 0.12
photoluminescence quantum yield (in CC#N): 0.02
photoluminescence quantum yield (in CCCCCC): 0.43

Structure (SMILES): F[B-]1(F)n2c(nc3c4ccccc4c4ccccc4c32)-c2ccc3ccccc3[n+]21
photoluminescence quantum yield (in ClCCl): 0.9

Structure (SMILES): CCC1(CC)c2cc(B(c3c(C)cc(C)cc3C)c3c(C)cc(C)cc3C)ccc2-c2c1c1c(c3c2C(CC)(CC)c2cc(N(c4ccccc4)c4ccccc4)ccc2-3)C(CC)(CC)c2cc(N(c3ccccc3)c3ccccc3)ccc2-1
photoluminescence quantum yield (in C1CCOC1): 0.21

Structure (SMILES): COC(=O)c1ccc(C2=C3C(C)=CC(C)=[N+]3[B-](F)(F)n3c(/C=C/c4c[nH]cn4)cc(C)c32)cc1
photoluminescence quantum yield (in ClC(Cl)Cl): 0.93

Structure (SMILES): CCCCN1C(=O)c2cccc3cccc(c23)C1=O
photoluminescence quantum yield (in Cc1ccccc1): 0.04

Structure (SMILES): COc1ccc(-c2c3ccccc3c(C#Cc3ccccc3)c3cc4cc(C)sc4cc23)cc1
photoluminescence quantum yield (in ClCCl): 0.73

Structure (SMILES): NS(=O)(=O)c1ccc(N2N=C(c3ccc(O)cc3)CC2c2ccccc2)cc1 (stereo not drawn)
photoluminescence quantum yield (in C1CCOC1): 0.65
photoluminescence quantum yield (in C1COCCO1): 0.63
photoluminescence quantum yield (in CC#N): 0.6
photoluminescence quantum yield (in CC(C)O): 0.44
photoluminescence quantum yield (in CCO): 0.36
photoluminescence quantum yield (in CCOC(C)=O): 0.66
photoluminescence quantum yield (in CN(C)C=O): 0.68
photoluminescence quantum yield (in CO): 0.28
photoluminescence quantum yield (in CS(C)=O): 0.7
photoluminescence quantum yield (in O): 0.41

Structure (SMILES): COc1ccc(-c2nc(-c3ccc(-c4nc(-c5ccc(OC)cc5)c(-c5ccc(OC)cc5)[nH]4)s3)[nH]c2-c2ccc(OC)cc2)cc1
photoluminescence quantum yield (in CC#N): 0.62

Structure (SMILES): c1ccc2c(c1)Oc1ccccc1N2c1ccc2c(c1)c1ccccc1n1c3ccccc3nc21
photoluminescence quantum yield (in O=P(c1ccccc1)(c1ccccc1)c1ccccc1Oc1ccccc1P(=O)(c1ccccc1)c1ccccc1): 0.8

Structure (SMILES): C[Si]1(C)c2cc(-c3ccc(-c4cccs4)s3)ccc2C=Cc2ccc(-c3ccc(-c4cccs4)s3)cc21
photoluminescence quantum yield (in ClCCl): 0.46

Structure (SMILES): CCCCCCCC(=O)Oc1ccc2c3cccc4c(OC(=O)CCCCCCC)ccc(c5cccc1c52)c43
photoluminescence quantum yield (in C1CCOC1): 0.97
photoluminescence quantum yield (in Cc1ccccc1): 0.97
photoluminescence quantum yield (in ClC(Cl)(Cl)Cl): 0.06
photoluminescence quantum yield (in ClC(Cl)Cl): 0.91
photoluminescence quantum yield (in ClCCl): 0.8
photoluminescence quantum yield (in c1ccncc1): 0.93

Structure (SMILES): Cc1cccc(-c2nc3sc4ccccc4c3s2)c1
photoluminescence quantum yield (in CS(C)=O): 0.84

Structure (SMILES): O=S1c2ccc(-c3c4ccccc4cc4ccccc34)cc2-c2cc(-c3c4ccccc4cc4ccccc34)ccc21
photoluminescence quantum yield (in C1CCCCC1): 0.31
photoluminescence quantum yield (in CC#N): 0.14
photoluminescence quantum yield (in ClCCl): 0.27

Structure (SMILES): CCC(CC)COC1=CC2=C3c4cc(OCC(CC)CC)c(-c5cccs5)n4[B-](F)(F)[n+]4c3n(c3cc(C(C)(C)C)ccc34)[B-](F)(F)[N+]2=C1c1cccs1
photoluminescence quantum yield (in C1CCOC1): 0.07
photoluminescence quantum yield (in ClCCl): 0.07

Structure (SMILES): CCCCCCC1(CCCCCC)c2ccccc2-c2ccc(-c3ccc(-c4cc(-c5ccccn5)nc(-c5ccccn5)c4)cc3)cc21
photoluminescence quantum yield (in ClCCl): 0.92

Structure (SMILES): CCCCCCCCCCCCOc1cc(C(=O)Nc2ccc(-c3ccc4c(c3)C(=O)c3ccccc3-4)cc2)cc(OCCCCCCCCCCCC)c1OCCCCCCCCCCCC
photoluminescence quantum yield (in C1CCOC1): 0.04

Structure (SMILES): O=P1(c2ccccc2)C(c2cccs2)=Cc2ccccc21 (stereo not drawn)
photoluminescence quantum yield (in C1CCOC1): 0.23

Structure (SMILES): C[Si](C)(C)[Si](C)(C)c1c2ccccc2cc2ccccc12
photoluminescence quantum yield (in C1CCCCC1): 0.92
photoluminescence quantum yield (in CC#N): 0.65

Structure (SMILES): Cn1c(=O)c(/N=N/c2cc(S(=O)(=O)O)ccc2C(=O)O)c(O)c2ccccc21
photoluminescence quantum yield (in CS(C)=O): 0.06

Structure (SMILES): NCc1ccc2ccc3cccc4ccc1c2c34
photoluminescence quantum yield (in C1CCCCC1): 0.38
photoluminescence quantum yield (in CC#N): 0.52
photoluminescence quantum yield (in CO): 0.3
photoluminescence quantum yield (in ClC(Cl)Cl): 0.07

Structure (SMILES): COc1ccc(C2=[N+]3C(=Cc4c5ccc(OC)cc5c(-c5ccc(OC)cc5)n4[B-]3(F)F)c3ccc(OC)cc32)cc1
photoluminescence quantum yield (in ClCCl): 0.49

Structure (SMILES): C/C=C/C=C/C1=NC(=C\c2ccc([O-])cc2)/C(=O)N1C
photoluminescence quantum yield (in O): 0.0008

Structure (SMILES): CCOC(=O)C1=C(C(=O)OCC)C2(c3ccccc3-c3ccccc32)[C@@H](c2ccc(Cl)cc2)C=C2c3cc(OC)c(OC)cc3CCN21
photoluminescence quantum yield (in ClCCl): 0.00114

Structure (SMILES): CCCCCCCCOc1ccc(-c2c3c4n(c(-c5ccc(OCCCCCCCC)cc5)c3c3n2[B-](F)(F)[n+]2c(ccc5ccccc52)N=3)[B-](F)(F)[n+]2c(ccc3ccccc32)N=4)cc1
photoluminescence quantum yield (in ClC(Cl)Cl): 0.83

Structure (SMILES): CC(C)(C)c1ccc(C2=C(c3ccc(-n4c5ccccc5c5ccccc54)cc3)S(=O)(=O)c3c2sc(-c2ccc(-n4c5ccccc5c5ccccc54)cc2)c3-c2ccc(C(C)(C)C)cc2)cc1
photoluminescence quantum yield (in C1CCOC1): 0.056

Structure (SMILES): CN(C)c1ccc(/C=C/c2ncnc3ccccc23)cc1
photoluminescence quantum yield (in ClCCl): 0.07

Structure (SMILES): CC1(C)c2ccccc2N(c2ccc3c(c2)C2(c4cc(N5c6ccccc6C(C)(C)c6ccccc65)ccc4-3)c3ccccc3S(=O)(=O)c3ccccc32)c2ccccc21
photoluminescence quantum yield (in c1ccc2c(c1)c1ccccc1n2-c1ccc(N(c2ccc(-n3c4ccccc4c4ccccc43)cc2)c2ccc(-n3c4ccccc4c4ccccc43)cc2)cc1): 0.41

Structure (SMILES): COc1ccc2c(c1)[nH]c1c3[nH]c4cc(OC)ccc4c3c3nsnc3c21
photoluminescence quantum yield (in CN(C)C=O): 0.47
photoluminescence quantum yield (in Cc1ccccc1): 0.5
photoluminescence quantum yield (in ClCCl): 0.5

Structure (SMILES): CC(C)[Si](C#Cc1c2cc3ccccc3cc2c(C#C[Si](C(C)C)(C(C)C)C(C)C)c2nc3c(ccc4ccccc43)nc12)(C(C)C)C(C)C
photoluminescence quantum yield (in CCCCCC): 0.22
